A word on the IC50: it is the concentration at which inhibition is half-maximal. High values mean weaker potency in that assay, low ones greater potency in that assay. What is called inhibition is the percentage by which the read-out fell short of the control.

Our source for the IC50 and inhibition values is patent publication US20050014811A1, “Substituted benzimidazole compounds and their use for the treatment of cancer” (Aventis Pharma S.A., priority 2001, published 2005).

One assay addresses CDK4/CyclinD1 (Homo sapiens, UniProt P11802). Briefly: CDK4/CyclinD1 Flashplate assay, 96-well format, biotinylated-Rb peptide substrate. The assay is classed as biochemical. Put shortly:
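Biotinylated Rb peptide bound to streptavidin Flashplate; CDK4/CyclinD1 (70 ng/well) preincubated 30 min on ice with compound at 10, 3, 1, 0.3 and 0.1 μM final. Reaction with 1 μM cold ATP plus 33P-ATP for 45 min at RT; incorporated 33P counted, duplicates.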

The next assay concerns the target CDK2/CyclinE (Homo sapiens, UniProt P24941). Briefly: CDK2/CyclinE Flashplate assay, 96-well format, biotinylated-Rb peptide substrate. The assay is classed as biochemical. Put shortly:
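Biotinylated Rb peptide was captured on streptavidin Flashplates, and CDK2/CyclinE (200 ng/well) was preincubated 30 min on ice with inhibitor at 10, 3, 1, 0.3 or 0.1 μM final. Reactions ran 45 min at RT with 1 μM ATP plus 1 μCi ^33P-ATP. After washing, incorporated ^33P was counted, in duplicate.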

CDK4/CyclinD1, sequence (P11802 whole entry, species assumed): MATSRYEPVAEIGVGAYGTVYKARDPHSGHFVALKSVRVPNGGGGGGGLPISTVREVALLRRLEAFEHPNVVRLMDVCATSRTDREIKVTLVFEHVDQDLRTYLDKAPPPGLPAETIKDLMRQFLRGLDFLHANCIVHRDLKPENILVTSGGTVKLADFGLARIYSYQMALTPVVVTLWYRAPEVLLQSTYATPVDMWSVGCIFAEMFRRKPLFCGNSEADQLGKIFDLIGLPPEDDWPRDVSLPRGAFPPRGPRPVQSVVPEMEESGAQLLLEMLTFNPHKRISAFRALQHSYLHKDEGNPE
CDK4/CyclinD1, sequence (P24385 whole entry partner, species assumed): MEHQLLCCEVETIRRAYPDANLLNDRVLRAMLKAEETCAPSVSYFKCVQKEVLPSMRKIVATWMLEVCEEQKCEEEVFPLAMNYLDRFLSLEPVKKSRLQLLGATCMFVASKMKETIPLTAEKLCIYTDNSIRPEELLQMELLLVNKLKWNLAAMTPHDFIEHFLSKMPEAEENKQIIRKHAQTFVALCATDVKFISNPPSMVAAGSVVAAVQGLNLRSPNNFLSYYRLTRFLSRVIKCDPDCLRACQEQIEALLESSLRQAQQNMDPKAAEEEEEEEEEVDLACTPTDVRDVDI

Consider `COC(=O)CNC(=O)Nc1nc2cc(OS(=O)(=O)c3ccc(NC4CCCC4)cc3)ccc2[nH]1` [Example 58-o, 4-{3-[5-(4-Cyclopentylamino-benzenesulfonyloxy)-1H-benzoimidazol-2-yl]-ureido}-acetic acid methyl ester], for which the IC50 against CDK4/CyclinD1 stood at 29 nM; at CDK2/CyclinE, 20 nM.
With `O=C(Nc1nc2cc(OS(=O)(=O)c3ccc(NC4CCCC4)cc3)ccc2[nH]1)N1CCC1` [Example 58-i, 4-Cyclopentylamino-benzenesulfonic acid 2-[(azetidine-1-carbonyl)-amino]-1H-benzoimidazol-5-yl ester], the inhibition at 10 µM against CDK4/CyclinD1 worked out at 81%. In addition, at CDK2/CyclinE, the IC50 was 300 nM.
Take `COC(=O)Nc1nc2cc(OS(=O)(=O)c3ccc(-c4cc(C(F)(F)F)n(C)n4)s3)ccc2[nH]1` [Example 62-e, 5-(1-Methyl-5-trifluoromethyl-1H-pyrazol-3-yl)-thiophene-2-sulfonic acid 2-methoxycarbonylamino-1H-benzoimidazol-5-yl ester]: the IC50 on CDK4/CyclinD1 turned out to be 4600 nM; at CDK2/CyclinE, 1000 nM.
As to `COC(=O)Nc1nc2cc(OS(=O)(=O)c3cccs3)ccc2[nH]1` [Example 62-b, Thiophene-2-sulfonic acid 2-methoxycarbonylamino-1H-benzoimidazol-5-yl ester], the IC50 on CDK4/CyclinD1 came to 440 nM; at CDK2/CyclinE it was 200 nM.
On to `O=C(Nc1ccc(F)cc1)Nc1nc2cc(OS(=O)(=O)c3ccc(NC4CCCC4)cc3)ccc2[nH]1` [Example 58-f, 4-Cyclopentylamino-benzenesulfonic acid 2-[3-(4-fluoro-phenyl)-ureido]-1H-benzoimidazol-5-yl ester], for which the inhibition at 10 µM at CDK4/CyclinD1 stood at 91%. Moreover, the IC50 against CDK2/CyclinE was 700 nM.
Take `O=C(NCc1cccnc1)Nc1nc2cc(OS(=O)(=O)c3ccc(NCC4CCCO4)cc3)ccc2[nH]1` (centres unmarked) [Example 59-l, 4-[(Tetrahydro-furan-2-ylmethyl)-amino]-benzenesulfonic acid 2-(3-pyridin-3-ylmethyl-ureido)-1H-benzoimidazol-5-yl ester]: the IC50 against CDK4/CyclinD1 was found to be 300 nM; at CDK2/CyclinE, 4 nM.
Turning to `O=C(Nc1nc2cc(OS(=O)(=O)c3ccc(NC4CCCC4)cc3)ccc2[nH]1)NC1CC1` [Example 33, 4-Cyclopentylamino-benzenesulfonic acid 2-(3-cyclopropyl-ureido)-1H-benzoimidazol-5-yl ester], the 50% inhibitory concentration (IC50) was 640 nM at CDK4/CyclinD1 and 60 nM at CDK2/CyclinE.
Take `CC(CO)NC(=O)Nc1nc2cc(OS(=O)(=O)c3ccc(NC4CCCC4)cc3)ccc2[nH]1` (centres unmarked) [Example 58-ak, 4-Cyclopentylamino-benzenesulfonic acid 2-[3-(2-hydroxy-1-methyl-ethyl)-ureido]-1H-benzoimidazol-5-yl ester]: the IC50 was determined as 180 nM at CDK4/CyclinD1 and 100 nM against CDK2/CyclinE.
With `O=C(NCCCO)Nc1nc2cc(OS(=O)(=O)c3ccc(NC4CCCC4)cc3)ccc2[nH]1` [Example 58-y, 4-Cyclopentylamino-benzenesulfonic acid 2-[3-(3-hydroxy-propyl)-ureido]-1H-benzoimidazol-5-yl ester], the values for the IC50 on CDK4/CyclinD1 and against CDK2/CyclinE were 270 nM and 10 nM, respectively.
For `O=C(NCCCCO)Nc1nc2cc(OS(=O)(=O)c3ccc(NC4CCCC4)cc3)ccc2[nH]1` [Example 58-ab, 4-Cyclopentylamino-benzenesulfonic acid 2-[3-(4-hydroxy-butyl)-ureido]-1H-benzoimidazol-5-yl ester], the 50% inhibitory concentration (IC50) against CDK4/CyclinD1 came out at 220 nM; at CDK2/CyclinE it was 2 nM.
The like results for `CC(C)NCCNC(=O)Nc1nc2cc(OS(=O)(=O)c3ccc(NC4CCCC4)cc3)ccc2[nH]1` [Example 58-al, 4-Cyclopentylamino-benzenesulfonic acid 2-[3-(2-isopropylamino-ethyl)-ureido]-1H-benzoimidazol-5-yl ester] were, in that order, 250 nM and 150 nM.
`O=C(Nc1cccc(F)c1)Nc1nc2cc(OS(=O)(=O)c3ccc(-n4ccnc4)cc3)ccc2[nH]1` [Example 57-d, 4-Imidazol-1-yl-benzenesulfonic acid 2-[3-(3-fluoro-phenyl)-ureido]-1H-benzoimidazol-5-yl ester] displayed an inhibition at 10 µM against CDK4/CyclinD1 of 70%. On CDK2/CyclinE, this molecule displayed an IC50 of 500 nM.
On to `CC(C)(N)CNC(=O)Nc1nc2cc(OS(=O)(=O)c3ccc(NC4CCCC4)cc3)ccc2[nH]1` [Example 58-w, 4-Cyclopentylamino-benzenesulfonic acid 2-[3-(2-amino-2-methyl-propyl)-ureido]-1H-benzoimidazol-5-yl ester], for which the 50% inhibitory concentration (IC50) against CDK4/CyclinD1 was found to be 190 nM; against CDK2/CyclinE it was 250 nM.
As to `CN(C)CC(=O)Nc1nc2cc(OS(=O)(=O)c3ccc(NC4CCCC4)cc3)ccc2[nH]1` [Example 29, 4-Cyclopentylamino-benzenesulfonic acid 2-(2-dimethylamino-acetylamino)-1H-benzoimidazol-5-yl ester], the figures for the IC50 at CDK4/CyclinD1 and on CDK2/CyclinE were 1700 nM and 600 nM, respectively.
Turning to `COC(=O)CCCC(=O)Nc1nc2cc(OS(=O)(=O)c3ccc(NC4CCCC4)cc3)ccc2[nH]1` [Example 26, 4-[5-(4-Cyclopentylamino-benzenesulfonyloxy)-1H-benzoimidazol-2-ylcarbamoyl]-butyric acid methyl ester], the IC50 on CDK4/CyclinD1 amounted to 680 nM; at CDK2/CyclinE, 130 nM.
As for `CNC(=O)Nc1nc2cc(OS(=O)(=O)c3ccc(NC4CCCC4)cc3)ccc2[nH]1` [Example 31, N-[5-(4-cyclopentylaminophenylsulfonyloxy)-1H-benzimidazole-2-yl]-methylurea], the IC50 against CDK4/CyclinD1 came out at 500 nM; at CDK2/CyclinE it was 100 nM.
`O=C(Nc1cccc(Cl)c1)Nc1nc2cc(OS(=O)(=O)c3ccc(NC4CCCC4)cc3)ccc2[nH]1` [Example 42, 4-Cyclopentylamino-benzenesulfonic acid 2-[3-(3-chloro-phenyl)-ureido]-1H-benzoimidazol-5-yl ester] yielded an inhibition at 10 µM on CDK4/CyclinD1 of 84%. Besides, at CDK2/CyclinE, half-maximal inhibition (IC50) required 910 nM.
The corresponding values for `O=C(Nc1ccc(F)cc1)Nc1nc2cc(OS(=O)(=O)c3ccc(-n4ccnc4)cc3)ccc2[nH]1` [Example 57-f, 4-Imidazol-1-yl-benzenesulfonic acid 2-[3-(4-fluoro-phenyl)-ureido]-1H-benzoimidazol-5-yl ester] are 88% and 500 nM.
As to `O=C(NCCN1CCCC1)Nc1nc2cc(OS(=O)(=O)c3ccc(NC4CCCC4)cc3)ccc2[nH]1` [Example 58-ai, 4-Cyclopentylamino-benzenesulfonic acid 2-[3-(2-pyrrolidin-1-yl-ethyl)-ureido]-1H-benzoimidazol-5-yl ester], the results for the half-inhibitory concentration (IC50) against CDK4/CyclinD1 and on CDK2/CyclinE were 330 nM and 150 nM, respectively.
As for `O=C(NCCS(=O)(=O)O)Nc1nc2cc(OS(=O)(=O)c3ccc(NCC4CCCO4)cc3)ccc2[nH]1` (centres unmarked) [Example 59-n, 4-[(Tetrahydro-furan-2-ylmethyl)-amino]-benzenesulfonic acid 2-[3-(2-sulfo-ethyl)-ureido]-1H-benzoimidazol-5-yl ester], the figures for the IC50 at CDK4/CyclinD1 and at CDK2/CyclinE were 130 nM and 36 nM, respectively.
Regarding `O=C(NCCCCO)Nc1nc2cc(OS(=O)(=O)c3ccc(NCC4CCCO4)cc3)ccc2[nH]1` (centres unmarked) [Example 59-d, 4-[(Tetrahydro-furan-2-ylmethyl)-amino]-benzenesulfonic acid 2-[3-(4-hydroxy-butyl)-ureido]-1H-benzoimidazol-5-yl ester], the IC50 amounted to 500 nM against CDK4/CyclinD1 and 15 nM at CDK2/CyclinE.
For `O=C(NCc1ccncc1)Nc1nc2cc(OS(=O)(=O)c3ccc(NC4CCCC4)cc3)ccc2[nH]1` [Example 52, 4-Cyclopentylamino-benzenesulfonic acid 2-(3-pyridin-4-ylmethyl-ureido)-1H-benzoimidazol-5-yl ester], the values for the IC50 at CDK4/CyclinD1 and at CDK2/CyclinE were 1000 nM and 80 nM, respectively.
As to `COC(=O)CCC(=O)Nc1nc2cc(OS(=O)(=O)c3ccc(-n4ccnc4)cc3)ccc2[nH]1` [Example 23, N-[5-(4-Imidazol-1-yl-benzenesulfonyloxy)-1H-benzoimidazol-2-yl]-succinamic acid methyl ester], the IC50 against CDK4/CyclinD1 was determined as 3100 nM; against CDK2/CyclinE, 400 nM.
In the case of `O=C(NCCCN1CCCC1=O)Nc1nc2cc(OS(=O)(=O)c3ccc(NC4CCCC4)cc3)ccc2[nH]1` [Example 58-ac, 4-Cyclopentylamino-benzenesulfonic acid 2-{3-[3-(2-oxo-pyrrolidin-1-yl)-propyl]-ureido}-1H-benzoimidazol-5-yl ester], the IC50 is 170 nM against CDK4/CyclinD1 and 13 nM against CDK2/CyclinE.
For `COC(=O)Nc1nc2cc(OS(=O)(=O)c3ccc(NCCc4ccccc4)cc3)ccc2[nH]1` [Example 20, Methyl-5-(4-[2-phenylethyl]aminophenylsulfonyloxy) benzimidazole-2-carbamate], the IC50 was more than 3000 nM against CDK4/CyclinD1 and more than 10000 nM against CDK2/CyclinE.
For the molecule `NC(=O)CNC(=O)Nc1nc2cc(OS(=O)(=O)c3ccc(NCC4CCCO4)cc3)ccc2[nH]1` (centres unmarked) [Example 59-a, 4-[(Tetrahydro-furan-2-ylmethyl)-amino]-benzenesulfonic acid 2-(3-carbamoylmethyl-ureido)-1H-benzoimidazol-5-yl ester], the IC50 at CDK4/CyclinD1 was found to be 100 nM; against CDK2/CyclinE, 8 nM.
The like results for `COC(=O)Nc1nc2cc(OS(=O)(=O)c3ccc(NC(C)C)cc3)ccc2[nH]1` [Example 10, Methyl-5-(4-isopropylaminophenylsulfonyloxy) benzimidazole-2-carbamate] were, in that order, 700 nM and 800 nM.
`COC(=O)[C@H](CO)NC(=O)Nc1nc2cc(OS(=O)(=O)c3ccc(NC4CCCC4)cc3)ccc2[nH]1` [Example 58-an, 2-{3-[5-(4-Cyclopentylamino-benzenesulfonyloxy)-1H-benzoimidazol-2-yl]-ureido}-3S-hydroxy-propionic acid methyl ester]: the IC50 came out at 200 nM against CDK4/CyclinD1 and 100 nM at CDK2/CyclinE.
